Test results taken from the NIST ThermoML archive (doi:10.1007/s10765-013-1526-8).

Key:
[1] = refractive index (Na D-line) (dimensionless); xn = mol fraction of the nth substance listed; details: 101 kPa, Liquid
[2] = xn = mol fraction of the nth substance listed; details: 101 kPa, Liquid; for speed of sound: Sing-around technique in a fixed-path interferometer

Brc1ccccc1 [bromobenzene] + CCCCC(CC)CO
Details	mass density, [2] [kg/m3]	refractive index, [1]	speed of sound, [2] [m/s]	viscosity, [2] [mPa·s]
298.15 K, x1 = 0.0623	846.06	1.4348	1305	7.004
298.15 K, x1 = 0.1321	869.44	1.4416	1295	5.672
298.15 K, x1 = 0.202	895.09	1.4486	1290	4.56
298.15 K, x1 = 0.2694	924.23	1.4554	1285	3.717
298.15 K, x1 = 0.336	956.85	1.4625	1281	3.044
298.15 K, x1 = 0.3981	991.69	1.4693	1279	2.553
298.15 K, x1 = 0.4625	1031.18	1.4767	1277	2.187
298.15 K, x1 = 0.5272	1074.92	1.4844	1273	1.923
298.15 K, x1 = 0.5918	1122.9	1.4925	1268	1.728
298.15 K, x1 = 0.6627	1179.58	1.502	1259	1.594
298.15 K, x1 = 0.7278	1235.29	1.5112	1248	1.49
298.15 K, x1 = 0.7941	1295.12	1.5212	1236	1.444
298.15 K, x1 = 0.8633	1359.7	1.5325	1216	1.359
298.15 K, x1 = 0.9266	1418.41	1.5433	1194	1.266
298.15 K, x1 = 1	1488.12	1.557	1153	1.065
303.15 K, x1 = 0.0623	842.3	1.4332	1291	5.889
303.15 K, x1 = 0.1321	864.98	1.4403	1282	4.765
303.15 K, x1 = 0.202	891.19	1.4472	1276	3.838
303.15 K, x1 = 0.2694	920.76	1.4542	1272	3.126
303.15 K, x1 = 0.336	952.81	1.4611	1270	2.577
303.15 K, x1 = 0.3981	986.69	1.4678	1268	2.197
303.15 K, x1 = 0.4625	1026.09	1.475	1266	1.907
303.15 K, x1 = 0.5272	1069.83	1.4826	1264	1.702
303.15 K, x1 = 0.5918	1117.3	1.4906	1261	1.548
303.15 K, x1 = 0.6627	1173.8	1.5	1254	1.458
303.15 K, x1 = 0.7278	1229.12	1.5092	1241	1.39
303.15 K, x1 = 0.7941	1288.41	1.5191	1226	1.355
303.15 K, x1 = 0.8633	1351.6	1.5303	1206	1.297
303.15 K, x1 = 0.9266	1410.1	1.5412	1183	1.205
303.15 K, x1 = 1	1481.4	1.555	1138	1.005
308.15 K, x1 = 0.0623	837.02	1.4306	1279	5.101
308.15 K, x1 = 0.1321	859.74	1.4376	1273	4.181
308.15 K, x1 = 0.202	886.06	1.4447	1267	3.414
308.15 K, x1 = 0.2694	915.17	1.4517	1263	2.814
308.15 K, x1 = 0.336	947.49	1.4587	1259	2.35
308.15 K, x1 = 0.3981	981.89	1.4655	1254	2.004
308.15 K, x1 = 0.4625	1021.03	1.4728	1251	1.722
308.15 K, x1 = 0.5272	1064.57	1.4805	1247	1.522
308.15 K, x1 = 0.5918	1111.88	1.4886	1241	1.37
308.15 K, x1 = 0.6627	1168.02	1.4981	1232	1.265
308.15 K, x1 = 0.7278	1222.21	1.5072	1218	1.192
308.15 K, x1 = 0.7941	1279.2	1.5171	1203	1.149
308.15 K, x1 = 0.8633	1339.82	1.528	1183	1.099
308.15 K, x1 = 0.9266	1398.8	1.5388	1161	1.052
308.15 K, x1 = 1	1474.58	1.553	1122	0.972
